Experimental findings from PMC8403975 (Bioorganic Chemistry, 2021) are described below.

Experiment [1] deals with PMA-differentiated THP-1 cells. Nature of the experiment: PMA-differentiated THP-1 cell viability assay. It is filed as cell-based. Particulars: Homo sapiens, THP-1, 24 h.
Experiment [2] addresses ACE2:SARS-CoV-2 Spike (RBD) (Homo sapiens, UniProt Q9BYF1). Nature of the experiment: biochemical. Type of experiment: binding.
The subject of experiment [3] is voltage-dependent Ca2+ channels (isolated rat ileum). Kind of experiment: Calcium antagonism: relaxation of K+. The conditions noted are these: K+ (80 mM)-induced contractions of rat ileum; mean ± SD, three independent experiments.
The next experiment has as its system Male Wistar albino rats. Type of experiment: in vivo, rat. Particulars: mean arterial BP compared to the control group.
Experiment [4] relates to IL-6 production in LPS-stimulated THP-1 cells. Nature of the experiment: IL-6 production by LPS-stimulated PMA-differentiated THP-1 cells. Type of experiment: cell-based, human. Particulars: compared to LPS (positive control); for Reduction of IL-6 level: compound at 1/4 IC50, added 2 h prior to LPS 0.5 μg/mL, 24 h.
In experiment [5] the test system is CRP production in LPS-stimulated THP-1 cells. Nature of the experiment: CRP production by LPS-stimulated PMA-differentiated THP-1 cells. The conditions noted are these: compared to LPS (positive control); for Effect on CRP level (in words): compound at 1/4 IC50, LPS 0.5 μg/mL. Type of experiment: cell-based, human.

Values after ≈ are worked out from the molar mass of the structure shown. Values joined by “and” are separate entries in the source; they are usually repeats but may differ in a detail not shown here. Equal values may be shown once. Read-outs that look alike come from different tables or passages of the source.

ACE2:SARS-CoV-2 Spike (RBD), sequence (Q9BYF1 18-740): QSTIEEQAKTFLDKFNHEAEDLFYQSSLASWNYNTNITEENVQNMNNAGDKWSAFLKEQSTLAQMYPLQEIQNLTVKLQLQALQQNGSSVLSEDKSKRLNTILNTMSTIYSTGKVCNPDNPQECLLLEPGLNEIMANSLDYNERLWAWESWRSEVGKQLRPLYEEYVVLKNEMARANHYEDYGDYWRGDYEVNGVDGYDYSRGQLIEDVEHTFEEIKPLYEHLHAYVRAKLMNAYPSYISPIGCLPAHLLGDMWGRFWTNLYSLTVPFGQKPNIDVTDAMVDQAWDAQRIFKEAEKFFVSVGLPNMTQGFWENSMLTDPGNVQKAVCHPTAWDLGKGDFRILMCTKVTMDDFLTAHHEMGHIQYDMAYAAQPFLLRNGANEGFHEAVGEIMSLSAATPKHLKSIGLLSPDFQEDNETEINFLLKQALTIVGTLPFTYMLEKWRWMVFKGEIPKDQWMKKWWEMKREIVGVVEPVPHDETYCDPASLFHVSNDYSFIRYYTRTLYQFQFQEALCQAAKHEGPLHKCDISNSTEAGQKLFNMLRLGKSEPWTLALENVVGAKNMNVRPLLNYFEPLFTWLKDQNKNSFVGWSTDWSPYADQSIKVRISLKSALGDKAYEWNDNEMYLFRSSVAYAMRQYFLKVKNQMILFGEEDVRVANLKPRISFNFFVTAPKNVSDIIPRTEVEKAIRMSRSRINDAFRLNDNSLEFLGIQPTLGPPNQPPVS

As a reminder, the IC50 is the concentration at which inhibition is half-maximal. In the case of `CCOC(=O)C1=C(C)NC(=S)NC1c1ccccc1Cl` (stereo not shown) [Compound 4b, Ethyl-4-(2-chlorophenyl)-6-methyl-2-thioxo-1,2,3,4-tetrahydropyrimidine-5-carboxylate], the IC50 in experiment [1] is 698 ± 65.6 µg/mL; in experiment [1] (read-out: IC50 µM), 231 µM; in experiment [2] it was ~12.5 nM and 12.5 nM; in experiment [3] it was 24.69 ± 2.35 µg/mL (≈ 79.4 µM).

On to `CC1=C(C(=O)Cl)C(c2ccccc2C#N)NC(=S)N1` (stereo not shown) [Compound 6a, 6-Methyl-4-(2-cyanophenyl)-2-thioxo-1,2,3,4-tetrahydropyrimidine-5-carbonyl chloride], for which the IC50 in experiment [2] came to 17.5 ± 1.31 nM; in experiment [3], 26.84 ± 1.51 µg/mL.

In the case of `CC1=C(C(=O)Nc2ccccc2)C(c2ccccc2Cl)NC(=S)N1` (stereo not shown) [Compound 8a, 4-(2-chlorophenyl)-6-methyl-N-phenyl-2-thioxo-1,2,3,4-tetrahydropyrimidine-5-carboxamide], the IC50 was 464 ± 29.7 µg/mL in experiment [1], 125 µM in experiment [1] (read-out: IC50 µM), 10.6 ± 0.61 nM in experiment [2] and 20.23 ± 1.79 µg/mL (≈ 56.5 µM) in experiment [3]. Moreover, the “% reduction in BP” value with Male Wistar albino rats is “up to 29%”.

Turning to `CC1=C(C(=O)Nc2ccc(C)cc2)C(c2ccccc2C#N)NC(=S)N1` (stereo not shown) [Compound 7b, 4-(2-cyanophenyl)-6-methyl-N-(4-methylphenyl)-2-thioxo-1,2,3,4-tetrahydropyrimidine-5-carboxamide], the IC50 in experiment [1] was 222 ± 10.1 µg/mL; in experiment [1] (read-out: IC50 µM), 61 µM; in experiment [2], 10.8 ± 0.75 nM; in experiment [3], 22.81 ± 2.46 µg/mL (≈ 62.9 µM). Also, the “Reduction of IL-6 level” value in experiment [4] came to 47%. The “Effect on CRP level (in words)” value in experiment [5] is on record as “moderate decrease”.

Consider `CC1=C(C(=O)Cl)C(c2ccccc2Br)NC(=S)N1` (stereo not shown) [Compound 6c, 6-Methyl-4-(2-bromophenyl)-2-thioxo-1,2,3,4-tetrahydropyrimidine-5-carbonyl chloride], for which the IC50 in experiment [2] worked out at 16.5 ± 1.08 nM; in experiment [3], 29.73 ± 2.44 µg/mL.

Regarding `CC1=C(C(=O)Nc2ccc(C)cc2)C(c2ccccc2Cl)NC(=S)N1` (stereo not shown) [Compound 8b, 4-(2-chlorophenyl)-6-methyl-N-(4-methylphenyl)-2-thioxo-1,2,3,4-tetrahydropyrimidine-5-carboxamide], the IC50 in experiment [2] was determined as 19.2 ± 1.11 nM; in experiment [3], 22.91 ± 2.59 µg/mL (≈ 61.6 µM).

As for `CC1=C(C(=O)Cl)C(c2ccccc2Cl)NC(=S)N1` (stereo not shown) [Compound 6b, 6-Methyl-4-(2-chlorophenyl)-2-thioxo-1,2,3,4-tetrahydropyrimidine-5-carbonyl chloride], the results for the half-maximal inhibitory concentration (IC50) in experiment [2] and in experiment [3] were 23.7 ± 1.35 nM and 30.78 ± 2.52 µg/mL, respectively.

In the case of `CCOC(=O)C1=C(C)NC(=S)NC1c1ccccc1Br` (stereo not shown) [Compound 4c, Ethyl-4-(2-bromophenyl)-6-methyl-2-thioxo-1,2,3,4-tetrahydropyrimidine-5-carboxylate], the figures for the IC50 in experiment [2] and in experiment [3] were 23 ± 1 nM and 23.62 ± 2.33 µg/mL (≈ 66.5 µM), respectively. For the same compound, the “% reduction in BP” value with Male Wistar albino rats was “about 21%”.

As to `CCOC(=O)C1=C(C)NC(=S)NC1c1ccccc1C#N` (stereo not shown) [Compound 4a, Ethyl-4-(2-cyanophenyl)-6-methyl-2-thioxo-1,2,3,4-tetrahydropyrimidine-5-carboxylate], the half-inhibitory concentration (IC50) in experiment [1] was 1550 ± 134 µg/mL; in experiment [1] (read-out: IC50 µM), 533 µM; in experiment [2] it was 8.5 ± 0.92 nM; in experiment [3] it was 23.07 ± 1.53 µg/mL (≈ 76.6 µM).

In the case of `CC1=C(C(=O)Nc2ccc(F)cc2)C(c2ccccc2C#N)NC(=S)N1` (stereo not shown) [Compound 7c, 4-(2-cyanophenyl)-6-methyl-N-(4–fluorophenyl)-2-thioxo-1,2,3,4-tetrahydropyrimidine-5-carboxamide], the IC50 was determined as 20.1 ± 1.1 nM in experiment [2] and 22.85 ± 1.11 µg/mL (≈ 62.4 µM) in experiment [3].

As to `CC1=C(C(=O)Nc2ccccc2)C(c2ccccc2C#N)NC(=S)N1` (stereo not shown) [Compound 7a, 4-(2-cyanophenyl)-6-methyl-N-phenyl-2-thioxo-1,2,3,4-tetrahydropyrimidine-5-carboxamide], the IC50 in experiment [1] was 434 ± 32.9 µg/mL; in experiment [1] (read-out: IC50 µM) it was 123 µM; in experiment [2], 11.6 ± 0.94 nM; in experiment [3], 19.65 ± 1.60 µg/mL (≈ 56.4 µM). Further, the “Effect on IL-6 level (in words)” value in experiment [4] (compound at 1/4 IC50, LPS 0.5 μg/mL) was “lowest effect”. The “% reduction in BP” value in the experiment with Male Wistar albino rats was “up to 29%”.

For `CC1=C(C(=O)O)C(c2ccccc2Cl)NC(=S)N1` (stereo not shown) [Compound 5b, 4-(2-chlorophenyl)-6-Methyl-2-thioxo-1,2,3,4-tetrahydropyrimidine-5-carboxylic acid], the IC50 is 967 ± 79.2 µg/mL in experiment [1]; 342 µM in experiment [1] (read-out: IC50 µM); ~12.5 nM and 12.5 nM in experiment [2]; 25.25 ± 1.39 µg/mL (≈ 89.3 µM) in experiment [3].

Regarding `CC1=C(C(=O)Nc2ccccc2)C(c2ccccc2Br)NC(=S)N1` (stereo not shown) [Compound 9a, 4-(2-bromophenyl)-6-methyl-N-phenyl-2-thioxo-1,2,3,4-tetrahydropyrimidine-5-carboxamide], the IC50 in experiment [1] is 484.9 ± 3.24 µg/mL; in experiment [1] (read-out: IC50 µM), 116 µM; in experiment [2] it was 13.7 ± 1.37 nM; in experiment [3] it was 21.45 ± 2.55 µg/mL (≈ 53.3 µM). Moreover, the “Reduction of IL-6 level” value in experiment [4] is reported as about 79%. In addition, the “Decrease in the level of CRP” value in experiment [5] (compound at 1/4 IC50, added 2 h prior to LPS 0.5 μg/mL, 24 h) was “about 95%”. Besides, the “% reduction in BP” value in the experiment on Male Wistar albino rats was found to be 27%.

With `CC1=C(C(=O)O)C(c2ccccc2C#N)NC(=S)N1` (stereo not shown) [Compound 5a, 4-(2-cyanophenyl)-6-methyl-2-thioxo-1,2,3,4-tetrahydropyrimidine-5-carboxylic acid], the IC50 in experiment [1] is 496 ± 38.7 µg/mL; in experiment [1] (read-out: IC50 µM), 118 µM; in experiment [2], 9.8 ± 1.06 nM; in experiment [3], 24.37 ± 1.45 µg/mL (≈ 89.2 µM). Also, the “Reduction of IL-6 level” value in experiment [4] was “about 56%”. Also, the “Effect on CRP level (in words)” value in experiment [5] is on record as “moderate decrease”.
